In patent US10017487B2, “Fused heterocyclic compound” (Takeda Pharmaceutical Company Limited, priority 2015, dated 2018):
Counter-ions that a name gives are not always drawn.

Key:
[1] = molecular target: T1, Human recombinant enteropeptidase (Homo sapiens, UniProt P98073); experiment: Human enteropeptidase inhibitory activity; format: biochemical; details: 3.3 μM test compound; fluorescence intensity at 2 hours after start of reaction; read-out: Inhibition rate at 3.3 μM
T1 construct: purchased ITSI-Biosciences LLC #REN-260
Method: Human recombinant enteropeptidase (#REN-260, ITSI-Biosciences LLC) was diluted with an assay buffer (50 mM Tricine, pH 8.0, 0.01 (w/v) %, Tween 20, 10 mM CaCl2) to prepare a 24 mU/mL enzyme solution. Subsequently, 5FAM-Abu-Gly-Asp-Asp-Asp-Lys-Ile-Val-Gly-Gly-Lys(CPQ2)-Lys-Lys-NH2 (purity: 97.2%, CPC Scientific Inc., SEQ ID NO: 1) was diluted with the assay buffer to prepare a 2.1 μM substrate solution. A test compound is dissolved in DMSO into a 1 mM solution, and the solution was diluted by 100-fold with the assay buffer to give a compound solution. To a 384-well black plate (#784076, Greiner Bio-One), 5 μL of the compound solution and 5 μL of the substrate solution were added and mixed, and 5 μL of the enzyme solution was then added to the mixture, followed by mixing to start the reaction. The fluorescence intensity was measured with a fluorescence plate reader EnVision (The Perkin-Elmer Corp.) at an excitation wavelength of 485 nm and a fluorescence wavelength of 535 nm. The same reaction as above except that the test compound was not contained was performed (test compound non-addition group). Furthermore, the same reaction as above except that the test compound and the enzyme were not contained was performed (control group). The inhibition rate was calculated using the fluorescence intensity at 2 hours after the start of the reaction by the following expression: Inhibition rate (%)=(1-((fluorescence intensity of test compound addition group)−(fluorescence intensity of control group))/((fluorescence intensity of test compound non-addition group)−(fluorescence intensity of control group)))×100

DIO mouse = experiment: Anti-obesity effect test using DIO mouse; format: in vivo; details: DIO mice, group average
Method: Diet-induced obesity (DIO) mice (D12079B diet, male, 32-week old) were orally administered with a 0.5% methyl cellulose suspension containing a test compound (30 mg/kg) (compound administration group, six mice per group) or a 0.5% methyl cellulose suspension (compound non-administration group (vehicle), six mice per group) once a day for eight days. The averages of the body weights at the start of administration and after continuous administration for eight days are shown below.

HFD-fed mouse = experiment: Fecal protein concentration-increasing test using HFD-fed mouse; format: in vivo; details: HFD-fed mice, 10 mg/kg oral, whole feces of first day of administration, group average
Method: High fat diet-fed (HFD-fed) mice (D12079B diet, male, 19-week old) were orally administered with a 0.5% methyl cellulose suspension containing a test compound (10 mg/kg) (compound administration group, six mice per group) or a 0.5% methyl cellulose suspension (compound non-administration group (vehicle), five mice per group), and whole feces were collected on the first day of administration. Dried feces were dissolved in 0.5 N NaOH, followed by centrifugation at 12,000 rpm. The protein concentration in the supernatant was then quantitatively measured (Lowry method), and the amount of protein contained in 1 g of feces was calculated as the fecal protein concentration (mg/g feces). The average of each group is shown below.

T1 sequence (P98073 whole entry): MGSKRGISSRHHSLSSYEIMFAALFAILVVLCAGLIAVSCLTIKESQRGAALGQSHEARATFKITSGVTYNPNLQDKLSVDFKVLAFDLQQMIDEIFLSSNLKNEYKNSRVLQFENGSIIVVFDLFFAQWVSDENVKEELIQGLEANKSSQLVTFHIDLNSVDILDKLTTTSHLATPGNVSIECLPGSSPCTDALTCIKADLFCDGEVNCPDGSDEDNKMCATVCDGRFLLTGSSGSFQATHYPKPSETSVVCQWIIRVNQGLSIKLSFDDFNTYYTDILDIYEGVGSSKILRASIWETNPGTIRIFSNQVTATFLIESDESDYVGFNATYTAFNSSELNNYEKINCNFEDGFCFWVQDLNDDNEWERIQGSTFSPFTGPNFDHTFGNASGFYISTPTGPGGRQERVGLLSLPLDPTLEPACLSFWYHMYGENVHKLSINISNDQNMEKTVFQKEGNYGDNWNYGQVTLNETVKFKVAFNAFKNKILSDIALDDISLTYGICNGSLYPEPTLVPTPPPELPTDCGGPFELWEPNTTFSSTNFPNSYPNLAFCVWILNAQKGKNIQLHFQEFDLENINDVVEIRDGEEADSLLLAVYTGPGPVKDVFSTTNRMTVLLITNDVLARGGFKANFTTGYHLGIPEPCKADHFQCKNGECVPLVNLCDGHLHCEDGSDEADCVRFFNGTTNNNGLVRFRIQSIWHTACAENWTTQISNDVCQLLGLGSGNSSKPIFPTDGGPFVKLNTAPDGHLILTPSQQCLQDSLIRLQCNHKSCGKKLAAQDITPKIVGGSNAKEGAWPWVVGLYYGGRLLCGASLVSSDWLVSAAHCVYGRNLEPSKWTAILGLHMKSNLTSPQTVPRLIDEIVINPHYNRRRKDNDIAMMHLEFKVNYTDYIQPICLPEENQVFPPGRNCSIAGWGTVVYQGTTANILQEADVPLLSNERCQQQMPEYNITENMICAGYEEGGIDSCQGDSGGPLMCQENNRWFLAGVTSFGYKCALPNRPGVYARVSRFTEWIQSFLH

Row | inhibition at 3.3 µM [1] [%] | SMILES | Body weight (g) After continuous administration for 8 days (DIO mouse; 30 mg/kg oral once a day for eight days) [g] | Body weight (g) At start of administration (DIO mouse; 30 mg/kg oral once a day, baseline) [g] | Fecal protein concentration (HFD-fed mouse) [mg/g feces]
1 | 101 | N=C(N)Nc1ccc(C(=O)Oc2cc3c(c(C4=NOC(CC(=O)O)(C(=O)O)C4)c2)CCO3)cc1 (stereo not drawn) [Example 6, 3-(6-((4-Carbamimidamidobenzoyl)oxy)-2,3-dihydro-1-benzofuran-4-yl)-5-(carboxymethyl)-4,5-dihydro-1,2-oxazole-5-carboxylic acid] |  |  | 
2 | 100 | CC1(C)Cc2c(cc(OC(=O)c3ccc(NC(=N)N)cc3)cc2C2=NOC(CC(=O)O)(C(=O)O)C2)O1 (stereo not drawn) [Example 5, 3-(6-((4-carbamimidamindobenzoyl)oxy)-2,2-dimethyl-2,3-dihydro-1-benzofuran-4-yl)-5-(carboxymethyl)-4,5-dihydro-1,2-oxazole-5-carboxylic acid] |  |  | 

Continued, compound first:

Row | SMILES | inhibition at 3.3 µM [1] [%] | Body weight (g) After continuous administration for 8 days (DIO mouse; 30 mg/kg oral once a day for eight days) [g] | Body weight (g) At start of administration (DIO mouse; 30 mg/kg oral once a day, baseline) [g] | Fecal protein concentration (HFD-fed mouse) [mg/g feces]
3 | N=C(N)Nc1ccc(C(=O)Oc2cc3c(c(C(=O)NCS(=O)(=O)O)c2)CCO3)cc1 [Example 3, (((6-((4-carbamimidamindobenzoyl)oxy)-2,3-dihydro-1-benzofuran-4-yl)carbonyl)amino)methanesulfonic acid] | 101 |  |  | 
4 | N=C(N)Nc1ccc(C(=O)Oc2cc3c(c(C(=O)NCP(=O)(O)O)c2)CCO3)cc1 [Example 4, ((((6-((4-Carbamimidamidobenzoyl)oxy)-2,3-dihydro-1-benzofuran-4-yl)carbonyl)amino)methyl)phosphonic acid hydrochloride] | 101 |  |  | 
5 | N=C(N)Nc1ccc(C(=O)Oc2cc3c(c(C(=O)NCCCS(=O)(=O)O)c2)CCO3)cc1 [Example 2, 3-(((6-((4-carbamimidamindobenzoyl)oxy)-2,3-dihydro-1-benzofuran-4-yl)carbonyl)amino)propane-1-sulfonic acid] | 101 |  |  | 
6 | N=C(N)Nc1ccc(C(=O)Oc2cc3c(c(C(=O)NCCS(=O)(=O)O)c2)CCO3)cc1 [Example 1, 2-(((6-((4-Carbamimidamidobenzoyl)oxy)-2,3-dihydro-1-benzofuran-4-yl)carbonyl)amino)ethanesulfonic acid] | 101 | 42.8 | 43.5 | 188.8
